Measured values: patent US20200377485A1, “HYDANTOIN MODULATORS OF KV3 CHANNELS” (AUTIFONY THERAPEUTICS LIMITED, priority 2015, published 2020)

How the values were obtained:
[1] = tested on: rat model of neuropathic pain; assay: Neuropathic pain model, partial ligation of the sciatic nerve, paw withdrawal threshold to mechanical force; type: in vivo
Method: (§1) Subjects comprised male, Wistar Hanover rats, 6 animals per group (225±2 g).
(§2) Vehicle (12% Captisol®; 0.5% w/v HPMC and 0.1% w/v Tween-80; 5 ml/kg via the intraperitoneal route) was prepared using autoclaved deionized water not more than one week prior to use.
The control for the neuropathic pain model was lamotrigine, administered at 30 mg/kg via oral delivery. The control for the inflammatory pain model was diclofenac, administered at 30 mg/kg via oral delivery. Statistical analysis was performed using one-way ANOVA, and comparisons were performed with time-matched vehicle group using Tukey's HSD test wherein * p<0.05, ** p<0.01, *** p<0.001. […]
Withdrawal thresholds were measured on both the ipsilateral (ligated) and contralateral (non-ligated) paws, prior to (predose) and then up to 24 h following drug or vehicle administration.
Pre-dose behavioural measurements were obtained by measuring paw withdrawals 14 days following nerve ligation; before the initiation of drug treatment. Following treatment, further readings were taken at 1, 3, 6 and 24 hour after administration. […]
Data were expressed as withdrawal threshold (g) and percentage reversals calculated according to the following formula: […]
Statistical analysis was carried out on withdrawal threshold readings using ANOVA with repeated measures followed by Tukey's HSD test. […]

[2] = General observations of behaviour during the pain studies; type: in vivo, rat; conditions: acute administration, 10-60 mg/kg i.p., neuropathic and inflammatory pain models
From the text: In addition to behavioural pain readings, each rat was observed throughout the study for changes in general behaviour.

[3] = tested on: rat model of persistent inflammatory pain; assay: Persistent inflammatory pain model, intraplantar Freund's Complete Adjuvant, paw withdrawal threshold to mechanical force; type: in vivo
Method: as §1, §2
The control for the neuropathic pain model was lamotrigine, administered at 30 mg/kg via oral delivery. The control for the inflammatory pain model was diclofenac, administered at 30 mg/kg via oral delivery. Statistical analysis was performed using one-way ANOVA, and comparisons were performed with time-matched vehicle group using Tukey's HSD test wherein * p<0.05, ** p<0.01, *** p<0.001.
Mechanical hyperalgesia was examined in a model of persistent inflammatory pain. […]
To assess the effect of the test compound, paw withdrawal thresholds were measured on both the ipsilateral (FCA-injected) and contralateral (non-injected) paws, prior to (naïve) and 24 h following FCA injection (predose), and then at 1, 3, 6 and 24 h after drug or vehicle administration.
Mechanical hyperalgesia was examined in a model of neuropathic pain by measuring paw withdrawal thresholds (PWT) to increasing mechanical force applied to the dorsal surface of the rat paw using an Analgesymeter (Ugo-Basile, Milan) equipped with a wedge-shaped probe (area 1.75 mm^2). […] Both ipsilateral and contralateral paw withdrawal readings were taken. […]

[4] = biological target: T1, human Kv3.2 channels (hKv3.2) (Homo sapiens, UniProt Q96PR1); assay: IonWorks Quattro electrophysiology, hKv3.2 stable CHO-K1 cell line (potentiation; secondary analysis of activation time Tauact); type: cell-based; conditions: -15 mV depolarising step; concentration chosen to give ~0.3 nA at end of pulse: RE1 6.25, RE3 0.2, RE9 0.2, Example 1 0.8 μM; vehicle 7.1 ms
T1 construct: expressed in transfected cells
T1 sequence (Q96PR1 1-638): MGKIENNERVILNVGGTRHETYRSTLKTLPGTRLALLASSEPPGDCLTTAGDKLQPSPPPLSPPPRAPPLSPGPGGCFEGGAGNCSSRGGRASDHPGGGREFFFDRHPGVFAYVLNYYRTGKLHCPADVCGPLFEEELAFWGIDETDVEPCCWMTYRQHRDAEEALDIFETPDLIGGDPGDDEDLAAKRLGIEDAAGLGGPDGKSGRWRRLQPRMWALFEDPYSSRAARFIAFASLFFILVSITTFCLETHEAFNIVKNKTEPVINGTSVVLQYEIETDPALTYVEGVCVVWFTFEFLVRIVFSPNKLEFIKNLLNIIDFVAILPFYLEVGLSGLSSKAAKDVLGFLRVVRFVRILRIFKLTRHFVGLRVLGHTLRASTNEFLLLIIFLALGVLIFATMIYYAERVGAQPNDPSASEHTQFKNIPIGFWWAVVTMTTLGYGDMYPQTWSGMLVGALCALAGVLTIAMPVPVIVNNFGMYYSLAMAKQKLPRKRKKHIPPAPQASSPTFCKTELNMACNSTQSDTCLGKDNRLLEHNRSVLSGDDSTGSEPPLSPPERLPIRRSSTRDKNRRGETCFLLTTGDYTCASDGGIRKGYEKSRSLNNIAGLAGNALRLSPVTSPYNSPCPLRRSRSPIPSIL
Method: The ability of the compounds of the invention to modulate the voltage-gated potassium channel subtypes Kv3.2 or Kv3.1 may be determined using the following assay.
To assess compound effects on human Kv3.2 channels (hKv3.2), a stable cell line expressing hKv3.2 was created by transfecting Chinese Hamster Ovary (CHO)-K1 cells with a pClH5-hKv3.2 vector. Cells were cultured in DMEM/F12 medium supplemented by 10% Foetal Bovine Serum, lx non-essential amino acids (Invitrogen) and 500 ug/ml of Hygromycin-B (Invitrogen). Cells were grown and maintained at 37° C. in a humidified environment containing 5% CO2 in air.
The day of the experiment, cells were removed from the incubator and the culture medium removed. Cells were washed with 5 ml of Dulbecco's PBS (DPBS) calcium and magnesium free and detached by the addition of 3 ml Versene (Invitrogen, Italy) followed by a brief incubation at 37° C. for 5 minutes. The flask was tapped to dislodge cells and 10 ml of DPBS containing calcium and magnesium was added to prepare a cell suspension. The cell suspension was then placed into a 15 ml centrifuge tube and centrifuged for 2 min at 1200 rpm. […]
Experiments were conducted at room temperature using IonWorks Quattro™ planar array electrophysiology technology (Molecular Devices Corp.) with PatchPlate™ PPC. […] Planar electrode hole resistances (Rp) were determined by applying a 10 mV voltage step across each well. […] Test pulses protocol may be performed in the absence (pre-read) and presence (post-read) of the test compound. Pre- and post-reads may be separated by the compound addition followed by a 3 minute incubation. […]
The recordings were analysed and filtered using both seal resistance (>20 MΩ) and peak current amplitude (>500 pA at the voltage step of 40 mV) in the absence of compound to eliminate unsuitable cells from further analysis. Paired comparisons between pre- and post-drug additions measured for the −15 mV voltage step were used to determine the positive modulation effect of each compound. […]

Cc1ccc(Oc2ncc(N3C(=O)NC(C)(C)C3=O)cn2)c2c1OCC21CC1 [Compound X, 5,5-dimethyl-3-[2-(7-methylspiro[2H-benzofuran-3,1-cyclopropane]-4-yl)oxypyrimidin-5-yl]imidazolidine-2,4-dione]
reversal of mechanical sensitivity, in words ([1]; 10, 30, 60 mg/kg i.p.): dose-related reversal of mechanical sensitivity with rapid onset and long duration of action
changes in normal (general) behaviour [2]: without causing significant changes in normal behaviour
reversal of mechanical sensitivity, in words ([3]; 10, 30, 60 mg/kg i.p.): dose-related reversal of mechanical sensitivity with rapid onset of action

CC[C@@]1(C)NC(=O)N(c2ccc(Oc3ccc(C)c4c3C3(CC3)CO4)cn2)C1=O [Example 1, (5R)-5-ethyl-5-methyl-3-[5-(7-methylspiro[2H-benzofuran-3,1′-cyclopropane]-4-yl)oxy-2-pyridyl]imidazolidine-2,4-dione]
Tauact mean (activation time constant of hKv3.2 current) [4]: 18.2 ms

CC[C@H]1NC(=O)N(c2ccc(Oc3ccc(C)c(OC)c3)nc2)C1=O [RE1, (5R)-5-ethyl-3-(6-{[4-methyl-3-(methyloxy)phenyl]oxy}-3-pyridinyl)-2,4-imidazolidinedione]
Tauact mean (activation time constant of hKv3.2 current) [4]: 9.9 ms

CC[C@H]1NC(=O)N(c2ccc(Oc3ccc(C#N)cc3C(C)(C)C)nc2)C1=O [RE3, 3-(1,1-dimethylethyl)-4-({5-[(4R)-4-ethyl-2,5-dioxo-1-imidazolidinyl]-2-pyridinyl}oxy)benzonitrile]
Tauact mean (activation time constant of hKv3.2 current) [4]: 23.0 ms

O=C(O)Cc1ccccc1Nc1c(Cl)cccc1Cl [diclofenac]
peak reversal of mechanical sensitivity (positive control) ([3]; 30 mg/kg oral, 1 h post-dose): 64%

Nc1nnc(-c2cccc(Cl)c2Cl)c(N)n1 [lamotrigine]
peak reversal of mechanical sensitivity (positive control) ([1]; 30 mg/kg oral, 3 h post-dose): 67%
